Measurements reported in ChEMBL document CHEMBL4477252, “Optimization of microtubule affinity regulating kinase (MARK) inhibitors with improved physical properties” (Bioorg Med Chem Lett, 2016).

Key:
[1] = molecular target: Cyclin-dependent kinase 5/CDK5 activator 1 (Homo sapiens, UniProt Q00535); assay: Inhibition of full-length recombinant human GST and His-tagged CDK5/P25 expressed in baculovirus expression system by Z'-LYTE assay
[2] = molecular target: Sphingosine kinase 1 (Homo sapiens, UniProt Q9NYA1); assay: Inhibition of full-length recombinant human GST-tagged SPHK1 by Z'-LYTE assay
Sequence of Sphingosine kinase 1 (Q9NYA1 whole entry): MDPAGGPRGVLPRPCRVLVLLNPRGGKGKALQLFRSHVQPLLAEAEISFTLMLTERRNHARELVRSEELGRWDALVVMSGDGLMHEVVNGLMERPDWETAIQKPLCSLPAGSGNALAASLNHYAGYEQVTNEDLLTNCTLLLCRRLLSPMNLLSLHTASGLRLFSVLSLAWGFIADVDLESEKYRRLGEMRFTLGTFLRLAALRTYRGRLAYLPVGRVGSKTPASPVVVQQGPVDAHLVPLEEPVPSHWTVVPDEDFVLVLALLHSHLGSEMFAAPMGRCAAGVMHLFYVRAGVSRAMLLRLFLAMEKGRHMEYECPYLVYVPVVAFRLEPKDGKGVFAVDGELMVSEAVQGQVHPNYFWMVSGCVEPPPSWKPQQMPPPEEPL

[3] = molecular target: T1, Cytoplasmic tyrosine-protein kinase BMX (Homo sapiens, UniProt P51813); assay: Inhibition of full-length recombinant human His-tagged BMX expressed in baculovirus expression system by Z'-LYTE assay
T1 sequence (P51813 whole entry): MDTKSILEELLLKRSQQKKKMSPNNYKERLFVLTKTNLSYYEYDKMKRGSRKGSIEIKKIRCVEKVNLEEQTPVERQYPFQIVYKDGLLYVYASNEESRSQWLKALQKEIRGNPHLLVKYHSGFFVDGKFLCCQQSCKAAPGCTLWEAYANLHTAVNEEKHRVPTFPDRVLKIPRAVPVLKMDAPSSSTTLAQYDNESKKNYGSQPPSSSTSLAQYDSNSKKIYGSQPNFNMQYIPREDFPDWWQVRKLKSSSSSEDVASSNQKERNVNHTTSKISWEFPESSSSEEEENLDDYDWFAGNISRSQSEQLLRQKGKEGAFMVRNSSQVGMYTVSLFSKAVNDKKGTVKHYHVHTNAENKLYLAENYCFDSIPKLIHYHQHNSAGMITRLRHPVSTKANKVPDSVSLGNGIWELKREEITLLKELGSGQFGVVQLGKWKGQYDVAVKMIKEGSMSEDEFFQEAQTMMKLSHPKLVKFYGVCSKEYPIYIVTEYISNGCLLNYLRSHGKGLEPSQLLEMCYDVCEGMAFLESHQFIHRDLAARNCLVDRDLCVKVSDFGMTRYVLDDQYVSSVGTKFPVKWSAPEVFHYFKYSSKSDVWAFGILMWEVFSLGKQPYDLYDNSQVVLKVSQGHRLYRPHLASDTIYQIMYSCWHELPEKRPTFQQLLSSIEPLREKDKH

[4] = molecular target: T2, Testis-specific serine/threonine-protein kinase 1 (Homo sapiens, UniProt Q9BXA7); assay: Inhibition of full-length recombinant human His-tagged STK22D expressed in baculovirus expression system by Z'-LYTE assay
T2 sequence (Q9BXA7 whole entry): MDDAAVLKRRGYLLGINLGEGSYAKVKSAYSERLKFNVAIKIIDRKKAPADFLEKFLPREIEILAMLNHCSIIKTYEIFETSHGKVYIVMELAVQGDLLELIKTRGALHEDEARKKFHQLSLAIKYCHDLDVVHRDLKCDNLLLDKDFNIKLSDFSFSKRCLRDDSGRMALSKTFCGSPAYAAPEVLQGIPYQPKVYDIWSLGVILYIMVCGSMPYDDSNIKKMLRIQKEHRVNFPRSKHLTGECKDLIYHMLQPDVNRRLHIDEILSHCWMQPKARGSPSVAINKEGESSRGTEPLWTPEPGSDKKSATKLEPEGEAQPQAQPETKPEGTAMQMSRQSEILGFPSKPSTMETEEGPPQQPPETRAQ

[5] = molecular target: T3, Tyrosine-protein kinase ITK/TSK (Homo sapiens, UniProt Q08881); assay: Inhibition of full-length recombinant human GST-tagged ITK expressed in baculovirus expression system by Z'-LYTE assay
T3 sequence (Q08881 whole entry): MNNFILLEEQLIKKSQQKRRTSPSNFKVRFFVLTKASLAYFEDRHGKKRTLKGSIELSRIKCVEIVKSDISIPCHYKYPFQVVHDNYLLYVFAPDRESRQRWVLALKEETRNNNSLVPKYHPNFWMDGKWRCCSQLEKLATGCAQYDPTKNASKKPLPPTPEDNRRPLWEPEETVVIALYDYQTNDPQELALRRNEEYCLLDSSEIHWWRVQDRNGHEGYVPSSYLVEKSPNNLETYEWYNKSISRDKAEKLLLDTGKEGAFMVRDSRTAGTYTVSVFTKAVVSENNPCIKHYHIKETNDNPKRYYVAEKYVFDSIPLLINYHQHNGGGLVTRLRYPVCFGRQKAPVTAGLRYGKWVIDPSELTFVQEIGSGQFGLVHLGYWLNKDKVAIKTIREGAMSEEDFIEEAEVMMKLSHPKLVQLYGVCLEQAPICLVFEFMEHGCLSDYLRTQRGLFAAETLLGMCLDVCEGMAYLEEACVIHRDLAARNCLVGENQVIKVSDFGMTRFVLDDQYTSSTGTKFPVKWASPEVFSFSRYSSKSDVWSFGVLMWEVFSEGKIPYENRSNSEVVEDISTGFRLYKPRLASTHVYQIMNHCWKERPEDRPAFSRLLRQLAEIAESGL

[6] = molecular target: Proto-oncogene tyrosine-protein kinase Src (Homo sapiens, UniProt P12931); assay: Inhibition of full-length recombinant human His-tagged SRC expressed in baculovirus expression system by Adapta assay
Sequence of Proto-oncogene tyrosine-protein kinase Src (P12931 2-536 limits assumed): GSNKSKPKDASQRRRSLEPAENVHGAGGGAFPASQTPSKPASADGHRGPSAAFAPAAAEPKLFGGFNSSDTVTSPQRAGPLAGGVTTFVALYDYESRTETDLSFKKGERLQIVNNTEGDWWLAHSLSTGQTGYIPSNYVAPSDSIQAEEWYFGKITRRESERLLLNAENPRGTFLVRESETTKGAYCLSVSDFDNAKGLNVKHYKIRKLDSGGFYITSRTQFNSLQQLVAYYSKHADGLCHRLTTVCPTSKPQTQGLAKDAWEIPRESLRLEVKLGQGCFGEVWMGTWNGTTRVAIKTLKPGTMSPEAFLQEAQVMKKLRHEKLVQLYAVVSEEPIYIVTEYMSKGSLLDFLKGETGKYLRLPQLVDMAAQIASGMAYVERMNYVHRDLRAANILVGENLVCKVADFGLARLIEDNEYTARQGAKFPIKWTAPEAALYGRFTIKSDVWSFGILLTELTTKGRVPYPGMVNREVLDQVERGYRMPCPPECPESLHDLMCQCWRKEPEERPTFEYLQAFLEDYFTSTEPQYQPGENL

[7] = Clearance in Sprague-Dawley rat at 1 mL/kg, iv administered through catheter measured after 24 hrs by LC-MS/MS analysis; assay type: ADME, organism-based; settings: in vivo
[8] = molecular target: High affinity nerve growth factor receptor (Homo sapiens, UniProt P04629); assay: Inhibition of recombinant human His-tagged cytoplasmic NTRK1 expressed in baculovirus expression system by Z'-LYTE assay
Sequence of High affinity nerve growth factor receptor (P04629 whole entry, canonical isoform): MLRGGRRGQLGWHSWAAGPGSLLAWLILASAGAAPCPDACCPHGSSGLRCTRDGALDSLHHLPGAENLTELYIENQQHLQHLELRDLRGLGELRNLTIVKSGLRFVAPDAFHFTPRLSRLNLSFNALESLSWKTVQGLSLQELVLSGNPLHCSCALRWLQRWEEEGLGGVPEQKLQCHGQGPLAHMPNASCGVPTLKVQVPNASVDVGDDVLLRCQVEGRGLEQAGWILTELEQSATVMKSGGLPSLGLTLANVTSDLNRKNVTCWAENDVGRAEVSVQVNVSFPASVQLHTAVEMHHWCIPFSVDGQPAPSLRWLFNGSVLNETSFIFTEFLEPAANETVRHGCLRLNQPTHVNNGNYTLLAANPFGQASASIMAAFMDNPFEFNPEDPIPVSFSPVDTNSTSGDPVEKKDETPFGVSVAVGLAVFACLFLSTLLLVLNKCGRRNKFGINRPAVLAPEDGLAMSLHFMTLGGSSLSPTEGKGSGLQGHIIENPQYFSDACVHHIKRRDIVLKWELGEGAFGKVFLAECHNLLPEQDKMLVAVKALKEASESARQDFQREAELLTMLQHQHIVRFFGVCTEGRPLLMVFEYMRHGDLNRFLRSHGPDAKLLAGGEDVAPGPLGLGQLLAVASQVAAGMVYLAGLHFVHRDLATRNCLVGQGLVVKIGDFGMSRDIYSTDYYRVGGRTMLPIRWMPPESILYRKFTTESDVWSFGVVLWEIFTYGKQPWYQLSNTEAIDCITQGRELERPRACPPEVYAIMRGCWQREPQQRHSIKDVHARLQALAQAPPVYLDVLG

[9] = molecular target: Casein kinase I isoform alpha (Homo sapiens, UniProt P48729); assay: Inhibition of recombinant human GST-tagged cytoplasmic CSNK1A1 expressed in baculovirus expression system by Z'-LYTE assay
Sequence of Casein kinase I isoform alpha (P48729 whole entry, canonical isoform): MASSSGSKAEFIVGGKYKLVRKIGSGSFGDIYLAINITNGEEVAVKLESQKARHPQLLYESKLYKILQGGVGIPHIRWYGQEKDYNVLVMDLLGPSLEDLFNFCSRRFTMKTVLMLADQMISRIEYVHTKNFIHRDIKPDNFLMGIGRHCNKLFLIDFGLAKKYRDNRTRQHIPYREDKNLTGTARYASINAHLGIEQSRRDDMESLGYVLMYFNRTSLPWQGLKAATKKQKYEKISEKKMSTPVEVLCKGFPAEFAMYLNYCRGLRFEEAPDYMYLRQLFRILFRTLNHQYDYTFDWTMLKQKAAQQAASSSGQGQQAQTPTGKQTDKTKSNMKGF

[10] = molecular target: T4, Interleukin-1 receptor-associated kinase 4 (Homo sapiens, UniProt Q9NWZ3); assay: Inhibition of full-length recombinant human His-tagged IRAK4 expressed in baculovirus expression system by Z'-LYTE assay
T4 sequence (Q9NWZ3 whole entry): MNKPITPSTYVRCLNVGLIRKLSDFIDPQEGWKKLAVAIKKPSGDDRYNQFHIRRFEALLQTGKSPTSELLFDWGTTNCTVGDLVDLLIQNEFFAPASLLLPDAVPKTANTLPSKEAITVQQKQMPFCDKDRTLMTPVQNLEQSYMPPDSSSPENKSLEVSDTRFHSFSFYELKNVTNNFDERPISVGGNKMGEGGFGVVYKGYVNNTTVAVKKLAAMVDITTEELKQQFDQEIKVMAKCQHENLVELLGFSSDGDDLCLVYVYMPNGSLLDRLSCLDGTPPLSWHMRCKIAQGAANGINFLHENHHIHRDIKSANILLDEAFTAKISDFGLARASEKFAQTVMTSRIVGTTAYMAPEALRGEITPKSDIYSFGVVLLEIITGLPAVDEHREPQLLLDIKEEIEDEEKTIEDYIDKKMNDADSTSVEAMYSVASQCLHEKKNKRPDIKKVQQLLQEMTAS

[11] = molecular target: Protein-tyrosine kinase 6 (Homo sapiens, UniProt Q13882); assay: Inhibition of full-length recombinant human His-tagged PTK6 expressed in baculovirus expression system by Z'-LYTE assay
Sequence of Protein-tyrosine kinase 6 (Q13882 whole entry): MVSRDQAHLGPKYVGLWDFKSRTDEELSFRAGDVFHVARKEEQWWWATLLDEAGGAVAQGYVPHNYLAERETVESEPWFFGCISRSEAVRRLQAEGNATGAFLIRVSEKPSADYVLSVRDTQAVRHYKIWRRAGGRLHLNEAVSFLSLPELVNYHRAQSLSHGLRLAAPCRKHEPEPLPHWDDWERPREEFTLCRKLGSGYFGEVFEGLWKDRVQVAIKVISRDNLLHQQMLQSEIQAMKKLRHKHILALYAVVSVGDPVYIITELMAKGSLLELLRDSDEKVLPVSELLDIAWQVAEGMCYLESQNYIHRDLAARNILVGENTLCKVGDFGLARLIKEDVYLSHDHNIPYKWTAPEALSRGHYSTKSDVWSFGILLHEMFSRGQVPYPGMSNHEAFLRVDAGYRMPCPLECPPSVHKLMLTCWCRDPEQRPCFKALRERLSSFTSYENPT

[12] = molecular target: RAC-gamma serine/threonine-protein kinase (Homo sapiens, UniProt Q9Y243); assay: Inhibition of full-length recombinant human His-tagged AKT3 expressed in baculovirus expression system by Z'-LYTE assay
Sequence of RAC-gamma serine/threonine-protein kinase (Q9Y243 whole entry): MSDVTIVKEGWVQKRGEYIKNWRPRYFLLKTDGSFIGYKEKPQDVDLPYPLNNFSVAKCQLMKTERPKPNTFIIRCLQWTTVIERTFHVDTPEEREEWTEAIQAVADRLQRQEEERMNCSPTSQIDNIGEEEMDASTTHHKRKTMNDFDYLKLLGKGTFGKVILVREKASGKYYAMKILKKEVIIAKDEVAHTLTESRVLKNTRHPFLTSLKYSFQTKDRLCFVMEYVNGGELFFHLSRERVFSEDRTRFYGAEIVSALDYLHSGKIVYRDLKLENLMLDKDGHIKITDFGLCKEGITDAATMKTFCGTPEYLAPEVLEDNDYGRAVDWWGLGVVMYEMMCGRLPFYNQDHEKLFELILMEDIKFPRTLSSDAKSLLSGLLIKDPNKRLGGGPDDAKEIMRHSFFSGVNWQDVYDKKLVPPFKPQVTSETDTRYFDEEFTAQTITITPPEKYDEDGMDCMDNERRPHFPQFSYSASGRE

[13] = molecular target: Tyrosine-protein kinase ABL1 (Homo sapiens, UniProt P00519); assay: Inhibition of full-length human His-tagged ABL1 expressed in baculovirus expression system by Z'-LYTE assay
Sequence of Tyrosine-protein kinase ABL1 (P00519 whole entry): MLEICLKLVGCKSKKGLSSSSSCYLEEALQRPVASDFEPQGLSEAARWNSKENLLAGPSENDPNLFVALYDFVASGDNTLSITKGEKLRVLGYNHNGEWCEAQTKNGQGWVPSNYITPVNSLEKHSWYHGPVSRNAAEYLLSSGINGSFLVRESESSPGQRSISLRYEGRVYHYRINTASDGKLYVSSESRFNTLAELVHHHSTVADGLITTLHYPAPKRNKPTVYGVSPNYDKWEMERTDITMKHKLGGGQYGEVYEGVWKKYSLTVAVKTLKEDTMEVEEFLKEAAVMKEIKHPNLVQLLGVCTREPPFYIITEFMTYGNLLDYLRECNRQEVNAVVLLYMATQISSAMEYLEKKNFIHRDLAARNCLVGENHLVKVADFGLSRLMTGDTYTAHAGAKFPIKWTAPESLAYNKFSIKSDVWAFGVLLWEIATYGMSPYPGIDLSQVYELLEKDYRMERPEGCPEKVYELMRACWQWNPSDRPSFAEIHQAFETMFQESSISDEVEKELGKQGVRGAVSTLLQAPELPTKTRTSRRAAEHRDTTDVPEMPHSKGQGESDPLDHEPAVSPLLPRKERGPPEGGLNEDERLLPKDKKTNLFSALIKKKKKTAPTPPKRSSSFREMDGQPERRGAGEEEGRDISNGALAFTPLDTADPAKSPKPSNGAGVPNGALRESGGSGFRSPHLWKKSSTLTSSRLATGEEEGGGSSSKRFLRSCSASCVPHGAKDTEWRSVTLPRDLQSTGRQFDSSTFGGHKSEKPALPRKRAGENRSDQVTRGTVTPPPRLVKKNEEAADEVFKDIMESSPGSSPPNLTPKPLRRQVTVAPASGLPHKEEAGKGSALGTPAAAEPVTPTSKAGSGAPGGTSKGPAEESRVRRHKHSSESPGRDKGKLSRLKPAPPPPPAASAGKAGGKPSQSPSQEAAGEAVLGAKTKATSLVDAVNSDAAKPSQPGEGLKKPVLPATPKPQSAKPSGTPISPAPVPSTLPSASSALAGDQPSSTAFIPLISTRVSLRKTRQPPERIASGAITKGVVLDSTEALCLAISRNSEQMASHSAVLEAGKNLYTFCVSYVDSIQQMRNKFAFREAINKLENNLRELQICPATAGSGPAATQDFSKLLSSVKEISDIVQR

Sequence of Cyclin-dependent kinase 5/CDK5 activator 1 (Q00535 whole entry): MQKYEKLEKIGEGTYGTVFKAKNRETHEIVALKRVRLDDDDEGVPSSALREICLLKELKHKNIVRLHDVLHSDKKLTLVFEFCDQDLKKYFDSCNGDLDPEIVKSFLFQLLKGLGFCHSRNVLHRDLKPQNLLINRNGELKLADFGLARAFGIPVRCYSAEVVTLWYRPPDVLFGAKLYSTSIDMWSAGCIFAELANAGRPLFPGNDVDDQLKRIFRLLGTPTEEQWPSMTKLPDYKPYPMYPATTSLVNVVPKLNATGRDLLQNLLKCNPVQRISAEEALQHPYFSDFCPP
Sequence of Cyclin-dependent kinase 5/CDK5 activator 1 (Q15078 whole entry, further chain): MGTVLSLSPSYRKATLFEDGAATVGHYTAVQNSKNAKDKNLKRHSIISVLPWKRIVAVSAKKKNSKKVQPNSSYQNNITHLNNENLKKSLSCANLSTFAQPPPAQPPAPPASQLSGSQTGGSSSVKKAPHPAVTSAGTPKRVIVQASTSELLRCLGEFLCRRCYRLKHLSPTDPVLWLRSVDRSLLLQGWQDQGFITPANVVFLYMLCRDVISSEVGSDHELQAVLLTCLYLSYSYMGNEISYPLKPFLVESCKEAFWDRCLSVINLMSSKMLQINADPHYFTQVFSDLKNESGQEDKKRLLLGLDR

Row | Compound | IC50 [1] [nM] | IC50 [2] [nM] | IC50 [3] [nM] | IC50 [4] [nM] | IC50 [5] [nM] | IC50 [6] [nM] | clearance [7] [mL/min/kg] | IC50 [8] [nM] | IC50 [9] [nM] | IC50 [10] [nM] | IC50 [11] [nM] | IC50 [12] [nM] | IC50 [13] [nM]
1 | Cn1cc(-c2cnc3c(-c4csc(C(=O)NCC(F)(F)F)c4)cnn3c2)cn1 | < 10 | > 100000 | 270 | 20 | 94 | 42 | 7.4 | 540 | 630 | 64 | > 100000 | > 100000 | < 10
2 | Cc1sc(C(=O)N[C@@H]2[C@H](N)CCCC2(F)F)cc1-c1cnn2cc(Cl)cnc12 | 61 | > 100000 | 9800 | < 10 | 4200 | 8100 | 19 | 2100 | 18000 | 3000 | > 100000 | 2400 | 9100
3 | O=C(NCC(F)(F)F)c1cc(-c2cnn3cc(-c4ccc(OCCN5CCCCC5)cc4)cnc23)cs1 | 19 | 32000 | 410 | < 10 | 26 | 37 | 32 | 310 | 230 | 210 | 1700 | > 100000 | < 10
4 | Cn1cc(-c2cnc3c(-c4csc(C(=O)N[C@@H]5CCCC[C@@H]5N)c4)cnn3c2)cn1 (racemic) | 4.4 | > 10000 | 3.5 | < 1 | 26 | 3 | – | 50 | 2100 | 23 | 390 | 330 | 1.3
